Data reported in US8598120B2 (Amylin Pharmaceuticals, LLC, priority 2004, dated 2013).
* marks the point of attachment. Pentanoyl(4-Me) = CC(C)CCC(=O)*; For = O=C*

Tests used:
[1] = Ghrelin assay (plasma total and active ghrelin); assay type: in vivo, rats
Procedure: All experiments were performed in the light cycle. Animals were fasted for approximately 20 hours before experimentation. All animals were given free access to water until the start of the experiment. The animals' tails were anesthetized with 20% benzocaine (Hurricaine, Beutlich Pharmaceutical, Waukegan, Ill.), and blood samples were collected from the tail vein. Total and active ghrelin concentrations were measured using Linco RIA kits GHRA-89HK and GHRA-88HK, respectively.
In study 1, HSD rats were subjected to periodic blood sampling from the topically anesthetized tail and ghrelin levels were assayed. […] The blood samples were analyzed for total and active (acylated) ghrelin (Linco).
Blood plasma samples were collected at least at times 0, 10, 20, 30, 60, and 90 min.

[2] = in vivo; cited from earlier work
[3] = Ethanol-induced gastric mucosal injury (gastroprotection); assay type: in vivo, rats; settings: for ED50 for the gastroprotective effect: s.c.
Procedure: Thirty min after gavage, each rat was anesthetized with 5% halothane, the stomach excised, opened along the lesser curvature and everted to expose the mucosa. The everted stomachs were gently rinsed with saline and immediately graded for mucosal damage by each of 10 observers blinded to the experimental treatment.
Stomachs were excised and graded for injury 30 min after ethanol gavage, as described above. The result is provided in the next to the last bar of FIG. 11A.
Stomachs were excised and graded for injury 30 min after ethanol gavage, as described above, and blood was taken for plasma glucose measurement. The injury response was also measured in glucose-treated rats coadministered a 3 mg intravenous bolus of AC187 (n=9).

[4] = Food intake assay in overnight fasted mice; assay type: in vivo; settings: 25 nmol/kg intraperitoneal
Procedure: Female NIH/Swiss mice (8-14 weeks old) were group housed with a 12:12 hour light:dark cycle. Water and a standard pelleted mouse chow diet are available ad libitum, except as noted. Animals are fasted starting at approximately 1500 hrs, 1 day prior to experiment.
The effects of treatment on food intake are expressed as % change relative to control.

[5] = Pentagastrin-stimulated gastric acid secretion in gastric fistula rats; assay type: in vivo; settings: for ED50 for the acid-suppressive effect: s.c.
Procedure: The experiments were performed during the light cycle. The rats, fed rat chow (Teklad L M 485, Madison, Wis.), were fasted for approximately 20 hours before experimentation. They were given water ad libitum until the start of the experiment.
The rats (age 9-14 weeks, body mass 264-395 g) were surgically fitted with double gastric fistulae by the supplier (Zivic Miller, Catalog number SCAO3.00). During laparotomy under halothane anesthesia, a grommet-shaped double lumen plug was sutured into the stomach wall. Two silastic 2.3 mm internal diameter (entry and exit) cannulae connected to the plug and communicating with the gastric lumen were tracked through the abdominal wall, subcutaneously to the interscapular region where they were separately exteriorized. The laparotomy wound was closed with clips, the rat was placed in a heated recovery cage for one day with free access to water. Thereafter, the rats were housed singly with free access to water and rat chow until they were subjected to overnight fasting for experiments which were performed on conscious rats, about 10-15 days after surgery.
Gastric catheters were uncapped and attached to flexible PE240 tubing for injection and sampling. To ensure patency of the catheters, 2-3 mL of saline solution at room temperature was injected and immediately withdrawn from the stomach. This was repeated until flow was easy and the effluent was clean. Gastric acid secretion was measured at 10 min intervals by injecting 5 mL saline and 2 mL air via one catheter, then immediately withdrawing the same via the other catheter. In this way errors due to incomplete aspiration of the small, secreted volume could be minimized. Three mL of each gastric aspirate were titrated to pH 7.0 with 0.01 N sodium hydroxide using a pH meter (Beckman model number PHI34 Fullerton, Calif.). The amount of base required for each titration, corrected for the total volume aspirated, was used to calculate the moles of acid in each sample.

[6] = 100 μg, one hour after amylin injection

Compound	cumulative food intake compared to vehicle, 30 min [4]	cumulative food intake compared to vehicle, 60 min [4]	cumulative food intake compared to vehicle, 120 min [4]	cumulative food intake compared to vehicle, 180 min [4]	also measured
KCNTATCATQRLANFLVRSSNNLGPVLPPTNVGSNTY (listed as Rattus sp.) [rat amylin]	–	–	–	–	reduction of active ghrelin (FIG. 8A) ([1]; 10 μg s.c. 20 min after pentagastrin […], within 1 hour): ~50%; plasma ghrelin, amylin alone without pentagastrin (FIG. 8B) ([1]; 30 μg/kg s.c., no pentagastrin): plasma ghrelin was reduced compared to the control; total plasma ghrelin compared to saline control (FIGS. 8B, 8C) ([1]; 30 μg/kg s.c., with or without pentagastrin): reduction in total plasma ghrelin
CSNLSTCVLGKLSQELHKLQTYPRTNTGSGTP (listed as Oncorhynchus sp.) [salmon calcitonin]	–	–	–	–	time course of effect in food intake assays [2]: delayed effect, with peak levels still maintained at 240 minutes
O=C[C@H](O)[C@@H](O)[C@H](O)[C@H](O)CO [D-glucose]	–	–	–	–	decrease of gastric injury score ([3]; 250 mg intraperitoneal, t=−30 min from gavage): 18.5±4.6%
KCNTATCLLQQLQKLLQKLKQYPRTNTGSNTY [Compound 35]	−20%	−16%	−18%	–	–
isocaproyl-STAVLGRLSQELHRLQTYPRTNTGSNTY ({Pentanoyl(4-Me)}-STAVLGRLSQELHRLQTYPRTNTGSNTY-NH2; SMILES CC(C)CCC(=O)N[C@@H](CO)C(=O)N[C@H](C(=O)N[C@@H](C)C(=O)N[C@H](C(=O)N[C@@H](CC(C)C)C(=O)NCC(=O)N[C@@H](CCCNC(=N)N)C(=O)N[C@@H](CC(C)C)C(=O)N[C@@H](CO)C(=O)N[C@@H](CCC(N)=O)C(=O)N[C@@H](CCC(=O)O)C(=O)N[C@@H](CC(C)C)C(=O)N[C@@H](Cc1c[nH]cn1)C(=O)N[C@@H](CCCNC(=N)N)C(=O)N[C@@H](CC(C)C)C(=O)N[C@@H](CCC(N)=O)C(=O)N[C@H](C(=O)N[C@@H](Cc1ccc(O)cc1)C(=O)N1CCC[C@H]1C(=O)N[C@@H](CCCNC(=N)N)C(=O)N[C@H](C(=O)N[C@@H](CC(N)=O)C(=O)N[C@H](C(=O)NCC(=O)N[C@@H](CO)C(=O)N[C@@H](CC(N)=O)C(=O)N[C@H](C(=O)N[C@@H](Cc1ccc(O)cc1)C(N)=O)[C@@H](C)O)[C@@H](C)O)[C@@H](C)O)[C@@H](C)O)C(C)C)[C@@H](C)O) [Compound 20]	−9%	−21%	−30%	−31%	–
KCNAATCVLGRLSQELHRLQTYPRTNTGSNTY [Compound 17]	−42%	−30%	−30%	−25%	–
KCNTATCVLGRLSQELHRLQTYPPTNTGSNTY [Compound 12]	−43%	−39%	−37%	−32%	–
KCNTATCVLGKLSQELHKLQTYPRTNTGSNTY [Compound 49]	−33%	−26%	−25%	–	–
Isocaproyl-STAVLG[K(For)]LSQELH[K(For)]LQTYPRTNTGSGTP ({Pentanoyl(4-Me)}-STAVLGK(For)LSQELHK(For)LQTYPRTNTGSGTP-NH2; SMILES CC(C)CCC(=O)N[C@@H](CO)C(=O)N[C@H](C(=O)N[C@@H](C)C(=O)N[C@H](C(=O)N[C@@H](CC(C)C)C(=O)NCC(=O)N[C@@H](CCCCNC=O)C(=O)N[C@@H](CC(C)C)C(=O)N[C@@H](CO)C(=O)N[C@@H](CCC(N)=O)C(=O)N[C@@H](CCC(=O)O)C(=O)N[C@@H](CC(C)C)C(=O)N[C@@H](Cc1c[nH]cn1)C(=O)N[C@@H](CCCCNC=O)C(=O)N[C@@H](CC(C)C)C(=O)N[C@@H](CCC(N)=O)C(=O)N[C@H](C(=O)N[C@@H](Cc1ccc(O)cc1)C(=O)N1CCC[C@H]1C(=O)N[C@@H](CCCNC(=N)N)C(=O)N[C@H](C(=O)N[C@@H](CC(N)=O)C(=O)N[C@H](C(=O)NCC(=O)N[C@@H](CO)C(=O)NCC(=O)N[C@H](C(=O)N1CCC[C@H]1C(N)=O)[C@@H](C)O)[C@@H](C)O)[C@@H](C)O)[C@@H](C)O)C(C)C)[C@@H](C)O) [Compound 30]	−1%	−2%	−19%	–	–
KCNTATCVLGRLANFLHRLQTYPRTNTGSNTY [Compound 14]	−52%	−36%	−28%	−33%	–
CNTATCVLGRLADFLHRLQTYPRTNTGSNTY [Compound 110]	−80%	−72%	−59%	–	–
KCNTATCVLGRLADFLHRFQTFPRTNTGSNTY [Compound 107]	−84%	−78%	−47%	–	–
KCNTATCVLGRLNEYLHRLQTYPRTNTGSNTY [Compound 101]	−52%	−48%	−35%	–	–
Amylin: amylin peptide hormone as summarised from the literature (Table 1, background), species not stated (KCNTATCATQRLANFLVHSSNNFGAILSSTNVGSNTY; Islet amyloid polypeptide; UniProt P10997 34-70, looked up)	–	–	–	–	rate of acid secretion as % of the basal rate that preceded pentagastrin injection [5, 6]: 32%; reduction of pentagastrin-stimulated secretion of acid [5, 6]: 93.4±2.6%; gastric acid production (FIG. 10A) ([5]; injected 40 min after pentagastrin, 0.1-100 μg): dose-dependently inhibited gastric acid production; ED50 for the acid-suppressive effect [5]: 41 pmol/kg; ED50 for the acid-suppressive effect ([5]; ±0.15 log units): 0.05 μg/rat; reduction of injury score ([3]; doses of 0.3 μg and higher): 67%; ED50 for the gastroprotective effect [3]: 31 pmol/kg; protection of the stomach from mucosal injury (FIG. 11C) ([3]; s.c. before ethanol gavage, P<0.05 with doses of 0.1 μg and higher): dose-dependently protected the stomach from mucosal injury; ED50 for the gastroprotective effect ([3]; ±0.40 log units): 0.036 µg; onset of effect in food intake assays [2]: ≤ 30 min; time course of effect in food intake assays [2]: its effect tapers off after 60 minutes
KCDTATCVLGRLSQELHRLQTYPRTNTGSNTY [Compound 111]	−39%	−37%	−32%	–	–
KCNTATCVLGRLFDFLHRLQTYPRTNTGSNTY [Compound 112]	−62%	−65%	−50%	–	–
SCNTATCVLGRLADFLHRLQTYPRTNTGSNTY [Compound 97]	−78%	−76%	−60%	−40%	–
KCNTAVCVLGRLSQELHRLQTYPRTNTGSNTY [Compound 37]	−3%	−2%	−16%	–	–
KCNTATCVLGRLAAALHRLQTYPRTNTGSNTY [Compound 113]	−79%	−86%	−55%	–	–
KCNTAACVLGRLSQELHRLQTYPRTNTGSNTY [Compound 18]	−2%	−7%	−16%	−21%	–
